US20080119571A1, “COMPOSITIONS AND METHODS TO ENHANCE REVERSE CHOLESTEROL TRANSPORT” (REDDY US THERAPEUTICS, INC., priority 2006, published 2008)
“Also recorded” adds a separate entry of the source.

Legend:
[1] = tested on: SR-B1; experiment: SR-B1 gene expression in LDL-r null mouse liver, real time PCR; format: in vivo
Experimental: (§1) To determine if a test compound was capable of upregulating these three RCT pathway genes, LDL-r mice were treated with vehicle alone (control) or vehicle containing a defined amount of a test compound termed, “compound A”.
(§2) LDL-r mice were chosen because they are prone to develop atherosclerosis. After 7 days of treatment, the three RCT pathway genes were quantitated using real time PCR. […] Thus, compound A coordinately up regulated the three RCT pathway genes, namely ABCA1, LCAT, and SRB1.
(§3) This example illustrates the effect of compound A on HDL and the ABCA1, SR-B1 and LCAT genes associated with RCT in LDL-receptor (LDLr) null mice in a short term model.
(§4) Eight-weeks-old LDLr mice (Jackson Laboratories, Bar Harbor, Me.), were used for this Example. Mice were distributed into two groups of 8 mice each. One group received vehicle containing carboxymethyl cellulose and Tween-80 (Sigma Chemical Co.), and the other group received a daily dose of compound A at 25 mg/kg. […]
(§5) Next, liver and aorta samples from vehicle and compound A treated mice were removed, flash frozen in liquid nitrogen and subsequently used for RNA isolation. […] RNA was then verified and quantified using the Agilent RNA 600 Nano Assay Labchip® system, and real time PCR was performed to quantitate the gene expression of SR-B1, ABCA1 and LCAT using validated primer sets from SuperArray. […]

[2] = tested on: ABCA1; experiment: ABCA1 gene expression in LDL-r null mouse liver, real time PCR; format: in vivo
Experimental: as §1, §2, §3
Eight-weeks-old LDLr mice (Jackson Laboratories, Bar Harbor, Me.), were used for this Example. Mice were distributed into two groups of 8 mice each. […]
(§6) After one week, plasma samples were collected and used for HDL determination. Mice were euthanized by CO2, and aorta and liver samples were collected for RNA isolation.
as §5

[3] = tested on: LCAT; experiment: LCAT gene expression in LDL-r null mouse liver, real time PCR; format: in vivo
Experimental: as §1, §2, §3, §4, §5

[4] = Plasma HDL levels in LDLr null mice, short term model; format: in vivo, mouse; details: 7-day treatment
From the text: Upregulation of ABCA1 and LCAT also should result in the formation of HDL particles. Following 7-day treatment, compound A increased HDL levels by greater than 50% (FIG. 4).
as §3
Eight-weeks-old LDLr mice (Jackson Laboratories, Bar Harbor, Me.), were used for this Example. Mice were distributed into two groups of 8 mice each. One group received vehicle containing carboxymethyl cellulose and Tween-80 (Sigma Chemical Co.), and the other group received a daily dose of compound A at 25 mg/kg.
as §6

[5] = tested on: atherosclerotic lesions; experiment: Atherosclerotic lesion area in LDLr null mice on Western Diet, long term model; format: in vivo, mouse; details: high fat diet, 25 mg/kg daily, 16 weeks
From the text: The atheroprotective effects of HDL to a large extent are attributed to its ability to remove cholesterol from macrophages present in atherosclerotic lesions to transport them to liver for excretion into bile. LDLr null mice develop atherosclerosis when fed a high fat diet. […] This example illustrates the effect of compound A on HDL and atherosclerosis in LDLr null mice in a long term model. Eight-weeks-old LDLr null mice (Jackson Laboratories, Bar Harbor, Me.), were used for these studies. Two groups of 8 mice each received a Western Diet (Research Diet incorporated, New Brunswick, N.J.; D12079B containing 0.1% cholesterol) for 2 weeks. Plasma samples were collected and used for lipid analysis. Mice were then distributed into two groups, one group received vehicle containing carboxymethyl cellulose and Tween-80 (Sigma Chemical Co.), and the other group received a daily dose of compound A at 25 mg/kg. Both groups were continued on the Western Diet for another 16 weeks. At the end of the 16 weeks, the mice were euthanized by CO2, and whole aortas (from aortic sinus to the beginning of iliac aorta) were isolated, and fixed in 10% paraformaldehyde. […] Images of whole aortas were obtained by microscopic digital camera, and the lesion area was determined by computer-assisted morphometry (Image Pro, Media cybermetics) as percentages of coverage in whole aorta. […]

[6] = tested on: SR-B1; experiment: SR-B1 expression in normal animals (rat liver), real time PCR; format: in vivo
From the text: (§7) After 7 days of treatment RCT pathway genes were quantitated using real time PCR.

[7] = tested on: ABCA1; experiment: ABCA1 expression in normal animals (rat liver), real time PCR; format: in vivo
From the text: as §7

[8] = tested on: ABCA1; experiment: ABCA1 expression in HepG2 liver cells, real time PCR; format: cell-based, human; details: HepG2, treated overnight
Experimental: (§8) The hepatoma cell line HepG2 are frequently used as in vitro models of liver cells. They are easy to culture and retain many properties of liver cells including expression of various genes involved in lipid metabolism.
(§9) This example illustrates the effect of compound A on genes associated with RCT in HepG2 cells.
(§10) Human HepG2 cells were cultured in DMEM containing 4500 mg glucose/L (ATCC) supplemented with 10% fetal bovine serum (FBS), penicillin (100 U/ml), and streptomycin (100 μg/ml) in a humidified atmosphere (5% CO2 in air) at 37° C. Cells were plated onto 12 well dishes and cultured in low serum (0.5% FBS) for experiments. Cells were treated with either vehicle (DMSO) or the test compound overnight and used for RNA isolation. Briefly, cells were lysed in 300 uL of lysis buffer (Qiagen) and placed in the TissueLyser (Qiagen) for 3 minutes. Samples were then processed as described by the RNeasy mini kit. RNA was then verified and quantified using the Agilent RNA 600 Nano Assay Labchip® system, and real time PCR was performed to quantitate gene expression using validated primer sets from SuperArray. The results were illustrated in FIGS. 8-9.

[9] = tested on: SRB1; experiment: SRB1 expression in HepG2 liver cells, real time PCR; format: cell-based, human; details: HepG2, treated overnight
Experimental: as §8, §9, §10

[10] = tested on: CAD; details: 4081 asymptomatic middle-aged men with primary dyslipidemia, 5 years; cited from earlier work
[11] = LDL-r mice, 10 and 25 mg/kg, 7 days of treatment, liver
[12] = normal animals, 10 and 25 mg/kg, 7 days of treatment

Compound | SRB1 expression in LDL-r null mouse liver [1] | increase in SR-B1 expression compared to vehicle treated animals [1, 11] | ABCA1 expression in LDL-r null mouse liver [2] | increase in ABCA1 expression compared to vehicle treated animals [2, 11] | LCAT expression in LDL-r null mouse liver [3] | increase in LCAT expression ([3]; LDL-r mice, 7 days of treatment, liver) | increase in HDL levels [4] | effect on atherosclerotic lesions [5] | SRB1 expression in rat liver [6] | increase in SR-B1 expression compared to vehicle treated animals [6, 12] | ABCA1 expression in rat liver [7] | increase in ABCA1 expression compared to vehicle treated animals [7, 12] | ABCA1 expression in liver cells [8] | ABCA1 expression in liver cells ([8]; listed as compound of Formula I) | SRB1 expression in liver cells [9] | decrease in CAD [10] [%]
CC(=O)c1ccc(Nc2nc(-c3ccccc3)cc(N3CCC(O)CC3)n2)cc1 [compound A] | induces | 2-2.5 fold | induces | 2-3 fold | induces | 30-90% | greater than 50% | inhibits atherosclerosis development; also recorded: significant decrease | induces | 2-4 fold | induces | 2-4 fold | induces | capable of increasing | capable of increasing | –
Cc1ccc(C)c(OCCCC(C)(C)C(=O)O)c1 [gemfibrozil] | – | – | – | – | – | – | – | – | – | – | – | – | – | – | – | 34
